From US9056067B2, “Pharmaceutical composition for enhancing immunity, and extract of Poria” (Sinphar Pharmaceutical Co., Ltd., priority 2003, dated 2015)

Legend:
Type in all cases: in vivo, mice
IgA = experiment: Serum level of IgA (ELISA); settings: for Effect on serum concentrations of IgA (in words): oral
Protocol: (§1) […] […] The control group was the mice feeding with an equal volume of saline (0.85% of NaCl). Mice were sacrificed at day five, and both the serum and spleen cells were collected. The sera were subsequently used to measure the concentration of IgG, IgM and IgA. The spleen cells were plated onto a 100 mm diameter culture plate and incubated at 37° C. for three hours. The non-adherent cells containing T-lymphocytes, B-lymphocytes and NK cells were collected and properly diluted as described in each assay.
(§2) The mouse to be sacrificed was cervical dislocated and sterilized with 70% ethanol. The cardiac punctuation was performed first to withdraw the blood. After the haemagglutination, the blood sample was subjected to centrifugation and the serum was collect. For isolation of spleen cells, the peritoneum was opened to remove the spleen. The fresh spleen was transferred to a culture plate containing 10 ml of RPMI-1640 culture medium. The spleen was then ground over a fine mesh to release the spleen cells. The spleen cells suspending in the medium were then removed and transferred to a 50-ml conical centrifuge tube. The tube was subjected to centrifugation at 1300 rpm for 10 min. The supernatant was discarded and the pellet was re-suspended in 1 ml of cold RBC lysing buffer containing EDTA-NH4Cl. The cells were incubated at room temperature for 10 min, followed by washing the cells three times with culture medium by centrifugation. The spleen cells were plated onto a 100 mm diameter culture plate and incubated at 37° C. for three hours. The non-adherent cells containing T-lymphocytes, B-lymphocytes and NK cells were collected and properly diluted as described in each assay.
(§3) An ELISA was performed in our study to measure the immunoglobulin concentration. Briefly, the spleen cells (5×10^5 cells/ml) were cultured in a medium containing RPMI 1640 supplemented with 10% fetal bovine serum (FBS), 2 mM L-glutamine, antibiotics and 5 μg/ml lipopolysaccharide (LPS; 1 μg/10^5 cells) for 5 days. LPS is a polyclonal activator of B lymphocyte. Culture spleen cell supernatants were collected at day 3, 4 and 5. IgA, IgG and IgM concentrations were measured using a sandwich ELISA technique.
The procedure for IgA assay was similar to that for IgG assay, except that the samples were 1/10^4 diluted and standard IgA ranged from 1 μg/ml to 0.0156 μg/ml were added (100 μl/well). The secondary antibody for the assay was HRP-conjugated goat anti-mouse IgA (1:1000 diluted; Zymed Laboratory, CA).

IL-10 = IL-10 secretion by Con A-stimulated spleen cells (ELISA) after oral administration
Protocol: For the drug treatment, the animals were divided into four groups and oral administration with 1 ml of PCM, ranging from 10, 40 to 80 mg/kg/day, for four days. […] The control group was the mice feeding with an equal volume of saline (0.85% of NaCl). Mice were sacrificed at day five, and both the serum and spleen cells were collected. The sera were subsequently used to measure the concentration of IgG, IgM and IgA. The spleen cells were plated onto a 100 mm diameter culture plate and incubated at 37° C. for three hours. The non-adherent cells containing T-lymphocytes, B-lymphocytes and NK cells were collected and properly diluted as described in each assay.
as §2
For the quantitative analysis of IFN-γ and IL-10, the spleen cells (1×10^6 cells/ml) were cultured in a medium containing RPMI 1640 supplemented with 10% fetal bovine serum (FBS), 2 mM L-glutamine, antibiotics and 1 μg/ml concanavalin A (Con A) for 3 days. Con A is one of the polyclonal activators for T lymphocyte. Culture spleen cell supernatants were collected. The IFNγ and IL-10 concentrations were measured using a cytokine ELISA set (Cyto Set ELISA kit) purchased from R&D Systems (MN, USA).
Cyto Set ELISA was performed as follows: A 96-well microtiter plate (Nunc-Immuno Plate, MaxiSorp, Nunc, Denmark) was precoated with capture antibodies at 4° C. overnight. The capture antibody was a rat monoclonal antibody to mouse IL-10. The samples to be tested and standard IL-10 ranged from 500 pg/ml to 15.6 pg/ml were added (100 μl/well). The plate was then incubated at 37° C. for 20 min. At the end of incubation, the plate was washed five times, followed by adding the biotinylated goat anti IL-10 polyclonal antibody. The color was developed by incubating the plate with a HRP-conjugated streptoavidin (Zymed, CA, USA), followed by a substrate solution containing hydrogen peroxide and tetramethylbenzidine (TMB). The reaction continued for 30 min at room temperature, and was stopped by adding 100 μl of 2N of sulfuric acid. The absorbence at 450 nm in each well was read using an ELISA reader (EL311, BioTek, Winooski, Vt.), and the data was analyzed using log-logit model.
TH1-type cytokines, such as interleukin-2 (IL-2), interferon-γ (IFN-γ) induces the cellular immune response. Whereas, TH2-type cytokines, such as interleukin-4 (IL-4), interleukin-5 (IL-5), interleukin-6 (IL-6), stimulates the B lymphocyte-mediated humoral immune response. […] Spleen cells isolated from the mice treated with PCM and its purified components, such as PCM-K1, -K2, -K3 and K4, were cultured for five days in the presence of ConA. The amount of interferon-γ (IFNγ; TH1-type cytokine) and interleukin-10 (IL-10; TH2-type cytokine) secreted by the spleen T lymphocytes was measured (Table 7.1 & Table 7.2). […]

IgG = IgG secretion by spleen cells in vitro (LPS, ELISA) after oral administration
Protocol: as §1, §2, §3
A 96-well microtiter plate (Nunc-Immuno Plate, MaxiSorp, Nunc, Denmark) was precoated with 100 ng/well of capture antibodies at 4° C. overnight. The capture antibody was a rabbit anti-mouse IgG+IgA+IgM antibody (Zymed Laboratory, CA). The plate was washed with PBS-0.05% Tween 20 solution and blocked with PBS-1% gelatin. After the blocking, the properly diluted samples (1/10^5 diluted) and standard IgG ranged from 0.25 μg/ml to 0.039 μg/ml were added (100 μl/well). The plate was then incubated at 37° C. for 2 h. At the end of incubation, HRP-conjugated goat anti-mouse IgG (1:2,000 diluted; anti-whole IgG molecule; Zymed Laboratory, CA) was added (100 μl/well). After 1 h of incubation at 37° C., the color was developed using a substrate solution containing 0.1 M citrate buffer, pH 4.5, 0.03% H2O2 and 0.1% of o-phenylenediamine. The absorbence at 490 nm in each well was read using an ELISA reader (EL311, BioTek, VT), and the data was analyzed using log-logit model.

[1] = oral 10 mg/kg/day for four days
[2] = oral 20 mg/kg/day for four days

Row | Structure (SMILES) | Effect on serum concentrations of IgA (in words) (IgA) | Serum immunoglobulin concentration IgA (IgA; oral 5 mg/kg/day for four days) [mg/mL] | Serum immunoglobulin concentration IgA (IgA; [1]) [mg/mL] | Serum immunoglobulin concentration IgA (IgA; [2]) [mg/mL] | IL-10 secretion by spleen cell (IL-10; oral 5 mg/kg/day for four days) [pg/mL] | IL-10 secretion by spleen cell (IL-10; [1]) [pg/mL] | IL-10 secretion by spleen cell (IL-10; [2]) [pg/mL] | IgG secretion by spleen cell, incubation day 3 (IgG; oral 5 mg/kg/day for four days) | IgG secretion by spleen cell, incubation day 4 (IgG; oral 5 mg/kg/day for four days) | IgG secretion by spleen cell, incubation day 5 (IgG; oral 5 mg/kg/day for four days) | IgG secretion by spleen cell, incubation day 3 (IgG; [1]) | IgG secretion by spleen cell, incubation day 4 (IgG; [1]) | IgG secretion by spleen cell, incubation day 5 (IgG; [1]) | IgG secretion by spleen cell, incubation day 3 (IgG; [2]) | IgG secretion by spleen cell, incubation day 4 (IgG; [2]) | IgG secretion by spleen cell, incubation day 5 (IgG; [2]) | Effect on IgG secretion by spleen cells (in words) (IgG; oral)
1 | C=C(CCC(C(=O)O)C1C(O)CC2(C)C3=CCC4C(C)(CCC(O)C4(C)C)C3=CCC12C)C(C)C (stereo not drawn) [K4] | no effect | 3.33 ± 0.13 | 3.39 ± 0.25 | 3.54 ± 0.12 | 128.91 ± 45.46 | 197.39 ± 68.73 | 155.91 ± 26.16 | 12.55 ± 3.08 | 12.99 ± 0.86 | 18.29 ± 0.92 | 6.54 ± 1.43 | 15.15 ± 5.16 | 22.59 ± 5.35 | 21.23 ± 3.19 | 19.11 ± 4.23 | 22.56 ± 3.84 | –
2 | C=C(CC[C@@H](C(=O)O)[C@H]1[C@H](O)C[C@@]2(C)C3=CC[C@H]4C(C)(C)C(=O)CC[C@]4(C)C3=CC[C@]12C)C(C)C [K3] | no effect | 3.65 ± 0.26 | 3.81 ± 0.46 | 3.55 ± 0.37 | 262.09 ± 108.41 | 86.48 ± 33.26 | 98.74 ± 27.05 | 3.85 ± 0.73 | 3.43 ± 0.40 | 4.46 ± 0.95 | 3.18 ± 0.55 | 3.16 ± 0.62 | 3.48 ± 0.43 | 6.12 ± 0.70 | 7.10 ± 1.39 | 8.56 ± 1.34 | significantly suppressed
